Measurements taken from article PMC8951750, “In Vitro Anticancer and Cancer-Preventive Activity of New Triterpene Glycosides from the Far Eastern Starfish Solaster pacificus” (Marine Drugs, 2022).
Where “and” joins values, the source holds several entries; their conditions need not be identical. Equal entries are not always repeated. Where two headings read alike, the source gives them in different places.

Columns and labels:
[1] = system: human melanoma cells SK-MEL-2; test: Cell viability, MTS assay, SK-MEL-2; type: cell-based; conditions: for SI (selectivity index) SK-MEL-2: IC50 JB6 Cl41 / IC50 SK-MEL-2
Experimental: (§1) MTS assay was used to measure the cell viability of tested normal and cancer cells. Cells were seeded into 96-well plates (“Jet Biofil”, Guangzhou, China) at density of 1.0 × 10^4/200 µL for 24 h at 37 °C in a 5% CO2 incubator. Then, cell monolayer was treated either with DMSO (control) or various concentrations of the triterpene glycosides 1–9 from S. pacificus (0.1, 0.5, 2.5, 12.5, 62.5 µM) in fresh appropriate culture medium for 24 h. Subsequently, the cells were incubated with 15 µL of 3-(4,5-dimethylthiazol-2-yl)-5-(3-carboxymethoxyphenyl)-2-(4-sulfophenyl)-2H-tetrazolium (MTS reagent) (“Promega”, Madison, WI, USA) for 3 h, and the absorbance of each well was measured at 490/630 nm using Power Wave XS microplate reader (“BioTek”, Wynusky, VT, USA). The concentration at which the compounds exert half of their maximal inhibitory effect on cell viability (IC50) was calculated by the AAT-Bioquest® online calculator [39]. The selectivity index (SI) was calculated as described previously using the following formula SI = IC50 of the compounds in normal cell (JB6 Cl41)/IC50 of the same compounds in human melanoma cell lines (SK-MEL-2, SK-MEL-28, or RPMI-7951).

[2] = system: non-cancerous mouse epidermal cells JB6 Cl41; test: Cell viability, MTS assay, JB6 Cl41; type: cell-based
Experimental: as §1

SK-MEL-2 cells = test: Soft agar assay, colony formation of cancer cells; type: cell-based, human; conditions: compound 0.1 µM, 14 days
Experimental: SK-MEL-2 cells (2.4 × 10^4) were treated either with DMSO (control) or the triterpene glycosides 1–9 from S. pacificus (0.1 µM) in 1 mL of agar mix. After 14 days, colonies of cancer cells were scored as described above.

JB6 Cl41 cells [3] = test: Soft agar assay, EGF-induced neoplastic cell transformation; type: cell-based, mouse; conditions: compound 0.1 µM, EGF 1 ng/mL, soft agar, 2 weeks, vs positive control; for inhibition at 0.1 µM: Mus musculus, JB6 Cl41, 336 h, read-out: inhibition of EGF-induced neoplastic transformation of JB6 Cl41 cells
Experimental: (§2) JB6 Cl41 cells (2.4 × 10^4) were exposed to epidermal growth factor (EGF) (1 ng/mL) or phorbol 12-myristate 13-acetate (TPA) (10 ng/mL) and treated either with DMSO (control) or the triterpene glycosides 1–9 from S. pacificus (0.1, 0.5, and 1 µM) in 1 mL of 0.3% basal medium Eagle (BME) agar containing 10% FBS, 2 mM L-glutamine, and 25 µg/mL gentamicin (agar mix). The cultures were maintained in a humidified atmosphere with 5% CO2 at 37 °C for 14 days, and the cell’s colonies were scored using a microscope, Motic AE 20 (XiangAn, Xiamen, China), and the ImageJ software bundled with 64-bit Java 1.8.0_112 (NIH, Bethesda, MD, USA). To determine the effect of investigated compounds on neoplastic cell transformation induced by ionizing radiation (X-ray or UVB), JB6 Cl41 cells (3 × 10^5/dish) were seeded in 60 mm dishes and cultured for 24 h at 37 °C in 5% CO2 incubator. Then, the cells were exposed to X-rays (X-ray system XPERT 80 (KUB Technologies, Inc, Milford, CT, USA)) at dose of 0.5 Gy or UVB (wavelengths below 312 nm) (Bio-Link UV irradiation system, Vilber, France) at dose of 0.3 J/cm^2 three times a week for 3 weeks. Irradiated JB6 Cl41 cells (2.4 × 10^4) were treated either with DMSO (control) or the triterpene glycosides 1–9 from S. pacificus (0.1, 0.5, and 1 µM) in 1 mL of agar mix. The cultures were maintained in a humidified atmosphere with 5% CO2 at 37 °C for 14 days, and the cell’s colonies were scored using a microscope, Motic AE 20 (XiangAn, Xiamen 361101, China), and the ImageJ software bundled with 64-bit Java 1.8.0_112 (NIH, Bethesda, MD, USA).

JB6 Cl41 cells [4] = test: Soft agar assay, UVB-induced neoplastic cell transformation; type: cell-based, mouse; conditions: for inhibition at 0.1 µM: Mus musculus, JB6 Cl41, light or radiation study, 504 h
Experimental: as §2

JB6 Cl41 cells [5] = test: Soft agar assay, TPA-induced neoplastic cell transformation; type: cell-based, mouse; conditions: compound 0.1 µM, TPA 10 ng/mL, soft agar, 2 weeks, vs positive control; for inhibition at 0.1 µM: Mus musculus, JB6 Cl41, 336 h, read-out: inhibition of TPA-induced neoplastic transformation of JB6 Cl41 cells
Experimental: as §2

[6] = system: human melanoma cells RPMI-7951; test: Cell viability, MTS assay, RPMI-7951; type: cell-based; conditions: for IC50: Homo sapiens, RPMI-7951, 24 h; for SI (selectivity index) RPMI-7951: IC50 JB6 Cl41 / IC50 RPMI-7951
Experimental: as §1

JB6 Cl41 cells [7] = test: Soft agar assay, X-ray-induced neoplastic cell transformation; type: cell-based, mouse; conditions: Mus musculus, JB6 Cl41, 504 h
Experimental: as §2

[8] = system: Human erythrocytes (O(I)+); test: Hemolysis assay; type: cell-based; conditions: 1 h, 37 °C, PBS pH 7.4
Experimental: Human erythrocytes (O(I)+) were obtained from Vladivostok blood transfusion station. Erythrocytes were centrifuged with PBS (pH 7.4) for 5 min at 4 °C by 450× g on a LABOFUGE 400R (Heraeus, Hanau, Germany) centrifuge three times. Then, the residue of erythrocytes was resuspended in ice-cold PBS (pH 7.4) to a final optical density of 2.0 at 700 nm and kept on ice. For the hemolytic assay, 180 µL of erythrocyte suspension was mixed with 20 µL of Cucumarioside A2-2 (positive control) and investigated compounds at concentrations range of 0.1, 0.5, 1, 5, 10 µM in V-bottom 96-well plates. After 1 h of incubation at 37 °C, plates were centrifuged at 900× g for 10 min on an LMC-3000 (Biosan, Riga, Latvia) laboratory centrifuge. Then, we carefully selected 100 µL of supernatant and transferred it to new flat plates, respectively. Lysis of erythrocytes was determined by measuring the concentration of hemoglobin in the supernatant with a microplate photometer Multiskan FC (Thermo Fisher Scientific, Waltham, MA, USA) at 570 nm. The effective dose causing 50% of erythrocytes hemolysis (ED50) was calculated using the computer program SigmaPlot 10.0. All experiments were made in triplicate, p < 0.01.

[9] = system: human melanoma cells SK-MEL-28; test: Cell viability, MTS assay, SK-MEL-28; type: cell-based; conditions: for IC50: Homo sapiens, SK-MEL-28, 24 h; for SI (selectivity index) SK-MEL-28: IC50 JB6 Cl41 / IC50 SK-MEL-28
Experimental: as §1

[10] = Homo sapiens, SK-MEL-2, 24 h, MTS assay, 24 h, read-out: IC50, cell viability SK-MEL-2
[11] = MTS assay, 24 h, read-out: IC50, cell viability SK-MEL-2
[12] = Mus musculus, JB6 Cl41, 24 h, MTS assay, 24 h, normal cells, read-out: IC50, cell viability JB6 Cl41
[13] = compound 0.1 µM, UVB 0.3 J/cm^2 three times a week for 3 weeks, soft agar, read-out: inhibition of UVB-induced neoplastic cell transformation (decrease of colonies number)
[14] = MTS assay, 24 h, read-out: IC50, cell viability RPMI-7951
[15] = compound 0.1 µM, X-rays 0.5 Gy three times a week for 3 weeks, soft agar, read-out: inhibition of X-ray-induced cell transformation (JB6 Cl41 colonies formation)
[16] = MTS assay, 24 h, read-out: IC50, cell viability SK-MEL-28

SMILES | IC50 [1, 10] | SI (selectivity index) SK-MEL-2 [1] | IC50 [1, 11] | IC50 [2, 12] | decrease of colonies number of SK-MEL-2 cells (colony formation) (SK-MEL-2 cells) | inhibition at 0.1 µM (JB6 Cl41 cells [3]) | inhibition at 0.1 µM (JB6 Cl41 cells [4]; [13]) | inhibition at 0.1 µM (JB6 Cl41 cells [5]) | IC50 [6, 14] | SI (selectivity index) RPMI-7951 [6] | inhibition at 0.1 µM (JB6 Cl41 cells [7]; [15]) | ED50, effective dose causing 50% of erythrocytes hemolysis [8] | IC50 [9, 16] | SI (selectivity index) SK-MEL-28 [9] | further results
COC1C(O)C(CO)OC(OC2C(O)C(CO)OC(OC3C(C)OC(OC4C(OC5CCC6(C)C7CCC89C(=O)OC(C)(C=CC=C(C)C)C8C(OC(C)=O)CC9(C)C7=CCC6C5(C)C)OCC(O)C4O)C(OC4OCC(O)C(O)C4O)C3O)C2O)C1O [Compound 1, 3β-O-{3-O-methyl-β-D-glucopyranosyl-(1→3)-β-D-glucopyranosyl-(1→4)-[β-D-xylopyranosyl-(1→2)]-β-D-quinovopyranosyl-(1→2)-β-D-xylopyranosyl}-16β-acetoxyholosta-7,22E,24-triene] | < 1 µM | 9.1 | 0.7 ± 0.07 µM | 6.4 ± 0.05 µM | 64% | 94% | 96% | 98% | 26.7 ± 0.1 µM | 0.24 | 94% | 2.03 µM and 2.03 ± 0.19 µM | 8.4 ± 0.07 µM | 0.8 | –
CC(=O)OC1CC2(C)C3=CCC4C(C)(C)C(OC5OCC(O)C(O)C5OC5OC(C)C(OC6OC(CO)C(O)C(O)C6O)C(O)C5OC5OCC(O)C(O)C5O)CCC4(C)C3CCC23C(=O)OC(C)(C=CC=C(C)C)C13 [Compound 2, 3β-O-{β-D-glucopyranosyl-(1→4)-[β-D-xylopyranosyl-(1→2)]-β-D-quinovopyranosyl-(1→2)-β-D-xylopyranosyl}-16β-acetoxyholosta-7,22E,24-triene] | 37.6 ± 0.2 µM | 0.8 | – | – | 3% | 25% | – | 18% | 36.4 ± 0.2 µM | 0.87 | < 15% | 4.08 ± 0.36 µM | 29 ± 0.02 µM | 1.0 | IC50 ([2]; MTS assay, 24 h, normal cells, read-out: IC50, cell viability JB6 Cl41): 31.5 ± 4.1 µM; inhibition of UVB-induced neoplastic cell transformation (decrease of colonies number) (JB6 Cl41 cells [4]; compound 0.1 µM, UVB 0.3 J/cm^2 three times a week for 3 weeks, soft agar): not effective
COC1C(O)COC(OC2C(O)C(COS(=O)(=O)O)OC(OC3C(C)OC(OC4C(OC5CCC6(C)C7CCC89C(=O)OC(C)(C=CC=C(C)C)C8C(OC(C)=O)CC9(C)C7=CCC6C5(C)C)OCC(O)C4O)C(O)C3O)C2O)C1O [Compound 3, 3β-O-{3-O-methyl-β-D-xylopyranosyl-(1→3)-6-sulfoxy-β-D-glucopyranosyl-(1→4)-β-D-quinovopyranosyl-(1→2)-β-D-xylopyranosyl}-16β-acetoxyholosta-7,22E,24-triene] | – | 8.8 | – | – | 34% | – | – | – | – | 0.22 | – | 0.72 µM and 0.72 ± 0.05 µM | – | 0.4 | IC50 ([1]; Homo sapiens, SK-MEL-2, 24 h, read-out: IC50, cell viability SK-MEL-2, MTS assay, 24 h): < 1 µM; IC50 ([1]; read-out: IC50, cell viability SK-MEL-2, MTS assay, 24 h): 0.68 ± 0.06 µM; IC50 ([2]; Mus musculus, JB6 Cl41, 24 h, read-out: IC50, cell viability JB6 Cl41, MTS assay, 24 h, normal cells): 6 ± 0.1 µM; inhibition of EGF-induced neoplastic transformation of JB6 Cl41 cells (JB6 Cl41 cells [3]; 0.1 µM): 70%; inhibition at 0.1 µM (JB6 Cl41 cells [4]; read-out: inhibition of UVB-induced neoplastic cell transformation (decrease of colonies number), compound 0.1 µM, UVB 0.3 J/cm^2 three times a week for 3 weeks, soft agar): 13%; inhibition of TPA-induced neoplastic transformation of JB6 Cl41 cells (JB6 Cl41 cells [5]; 0.1 µM): 36%; IC50 ([6]; read-out: IC50, cell viability RPMI-7951, MTS assay, 24 h): 27.9 ± 0.09 µM; inhibition at 0.1 µM (JB6 Cl41 cells [7]; read-out: inhibition of X-ray-induced cell transformation (JB6 Cl41 colonies formation), compound 0.1 µM, X-rays 0.5 Gy three times a week for 3 weeks, soft agar): 26%; IC50 ([9]; read-out: IC50, cell viability SK-MEL-28, MTS assay, 24 h): 14.8 ± 0.03 µM
C=C(C)C1C2CC3(C)C4=CCC5C(C)(C)C(OC6OCC(O)C(O)C6OC6OC(C)C(OC7OC(COS(=O)(=O)O)C(O)C(OC8OCC(O)C(OC)C8O)C7O)C(O)C6O)CCC5(C)C4CCC13C(=O)O2 [Compound 9, 3β-O-{3-O-methyl-β-D-xylopyranosyl-(1→3)-6-O-6-sulfoxy-β-D-glucopyranosyl-(1→4)-β-D-quinovopyranosyl-(1→2)-β-D-xylopyranosyl}-23,24,25,26,27-pentanor-5α-lanosta-7,20(22)-diene-18(16)-lactone] | < 1 µM | 9.9 | 0.75 ± 0.03 µM | 7.4 ± 0.8 µM | – | 34% | 11% | 42% | 32.4 ± 0.08 µM | 0.23 | 28% | 2.85 ± 0.14 µM | 23.3 ± 0.6 µM | 0.32 | –
C=C(C)CCCC1(C)OC(=O)C23CCC4C(=CCC5C(C)(C)C(OC6OCC(OS(=O)(=O)[O-])C(O)C6OC6OC(C)C(OC7OC(CO)C(O)C(OC8OC(CO)C(O)C(OC)C8O)C7O)C(O)C6OC6OCC(O)C(O)C6O)CCC45C)C2(C)CC(=O)C13.[Na+] (stereo not shown) [Cucumarioside A2-2, reference compound] | – | – | – | – | – | – | – | – | – | – | – | 0.95 ± 0.04 µM | – | – | –
